# Data: patent US20070072222A1, “FABP4 as biomarker for toxic effect” (priority 2005, published 2007)
# Columns and labels:
# mice = experiment: Oral repeat-dose toxicity study in mice; format: in vivo, mouse (CD-1, C57BL6)
# Procedure: (§1) CD-1 mice (Charles River Laboratories, UK): • treatment with 3-{1-[2-(2-CHLORO-PHENYL)-5-METHYL-OXAZOL-4-YLMETHYL]-1H-INDOL-5-YL}-2-ETHOXY-PROPIONIC ACID for 1 day; doses were 0, 0.2 and 3 mg/kg • treatment with 3-{1-[2-(2-CHLORO-PHENYL)-5-METHYL-OXAZOL-4-YLMETHYL]-1H-INDOL-5-YL}-2-ETHOXY-PROPIONIC ACID for 10 days; doses were 0, 0.2 and 3 mg/kg • treatment with 3-{1-[2-(2-CHLORO-PHENYL)-5-METHYL-OXAZOL-4-YLMETHYL]-1H-INDOL-5-YL}-2-ETHOXY-PROPIONIC ACID for 14 days; doses were 0, 0.6 and 15 mg/kg
# (§2) C57BL6 mice (RCC Ltd, Füllinsdorf): • treatment with 3-{1-[2-(2-CHLORO-PHENYL)-5-METHYL-OXAZOL-4-YLMETHYL]-1H-INDOL-5-YL}-2-ETHOXY-PROPIONIC ACID for 1 day; doses were 0, 0.2 and 3 mg/kg • treatment with 3-{1-[2-(2-CHLORO-PHENYL)-5-METHYL-OXAZOL-4-YLMETHYL]-1H-INDOL-5-YL}-2-ETHOXY-PROPIONIC ACID for 10 days; doses were 0, 0.2 and 3 mg/kg
# (§3) Cynomolgus Monkey (macaca fascicularis): • treatment with 3-{1-[2-(2-CHLORO-PHENYL)-5-METHYL-OXAZOL-4-YLMETHYL]-1H-INDOL-5-YL}-2-ETHOXY-PROPIONIC ACID for 28 days; doses were 0, 0.015, 0.09 and 0.31 mg/kg • Treatment with 3-{1-[2-(2-CHLORO-PHENYL)-5-METHYL-OXAZOL-4-YLMETHYL]-1H-INDOL-5-YL}-2-ETHOXY-PROPIONIC ACID for 16 weeks; doses were […], 0.1, 0.3 and 1 mg/kg 3-{1-[2-(2-CHLORO-PHENYL)-5-METHYL-OXAZOL-4-YLMETHYL]-1H-INDOL-5-YL}-2-ETHOXY-PROPIONIC ACID was dissolved in 20% propylene glycol/phosphate buffer, pH8. Treated animals were dosed orally (p.o.).
# [1] = test system: rat tissue (liver, heart, skeletal muscle, Brown adipose tissue); experiment: Oral repeat-dose toxicity study in rats; format: in vivo, Wistar rats; conditions: at similar exposure levels as in mice
# Procedure: Wistar rats (RCC Ltd, Füllinsdorf): • treatment with 3-{1-[2-(2-CHLORO-PHENYL)-5-METHYL-OXAZOL-4-YLMETHYL]-1H-INDOL-5-YL}-2-ETHOXY-PROPIONIC ACID for 14 days; doses were 0, 0.3 and 1.2 mg/kg • Treatment with 3-{1-[2-(2-CHLORO-PHENYL)-5-METHYL-OXAZOL-4-YLMETHYL]-1H-INDOL-5-YL}-2-ETHOXY-PROPIONIC ACID for 28 days; doses were 0, 0.1, 0.5 and 2.5 mg/kg
# as §3
# [2] = test system: monkey tissue (liver, heart, skeletal muscle, Brown adipose tissue); experiment: Oral repeat-dose toxicity study in monkeys; format: in vivo, Cynomolgus Monkey (macaca fascicularis); conditions: at similar exposure levels as in mice
# Procedure: as §3
# [3] = test system: mouse FABP4 (SEQ. ID NO: 3); experiment: FABP4 gene expression in mouse liver (Affymetrix microarray MEA 230 plus); format: in vivo, mouse (CD1, C57Bl/6); conditions: mice, after p.o. administration
# Procedure: as §1, §2
# (§4) The expression levels of FABP4 of the mice (SEQ. ID NO: 3) were measured using Affymetrix microarrays (MEA 230 plus, probe sets: 1417023_a_at, 1424155_at, 1425809_at, 1451263_a_at) or Applied Biosystems Assays on Demand (assay ID: Mm00445880_ml). The expression levels of FABP4 of the rat (SEQ. ID NO: 2) were measured using Affymetrix microarrays (RG U34A, probe set: rc_AI169612_at) or Applied Biosystems Assays on Demand (assay ID: Rn00670361_ml). The expression levels of FABP4 of the monkeys were not measured.
# [4] = test system: rat FABP4 (SEQ. ID NO: 2); experiment: FABP4 gene expression in rat liver (Affymetrix microarray RG U34A); format: in vivo, Wistar rats; conditions: for FABP4 expression relative to time matched vehicle control, Affymetrix result (Fold change): rat liver
# Procedure: as §4
# (§5) Wistar rats (RCC Ltd, Füllinsdorf): • treatment with INDOMETHACIN (1-(4-Chlorobenzoyl)-5-methoxy-2-methyl-3-indoleacetic acid, Sigma I7378), single dose p.o. (orally); doses were 0, 2, 10 and 20 mg/kg • Treatment with INDOMETHACIN (1-(4-Chlorobenzoyl)-5-methoxy-2-methyl-3-indoleacetic acid, Sigma I7378) for 7 days; doses were 0, 2, and 5 mg/kg/day INDOMETHACIN was dissolved in corn oil. Treated animals were dosed orally (p.o.). The expression levels of FABP4 of the rat (SEQ. ID NO: 2) were measured using Affymetrix microarrays (RG U34A, probe sets: rc_AI169612_at) or Applied Biosystems Assays on Demand (assay ID: Rn00670361_ml).
# [5] = test system: rat FABP4 (SEQ. ID NO: 2); experiment: FABP4 mRNA expression in rat liver by PCR (Applied Biosystems Assays on Demand); format: in vivo, Wistar rats
# Procedure: as §4, §5
# livers = experiment: Liver histopathology and clinical biochemistry in indomethacin treated rats; format: in vivo, Wistar rats
# Procedure: as §5
# [6] = single dose 20 mg/kg, necropsy 24 hours
compound,measurement,setting,value
CCOC(Cc1ccc2c(ccn2Cc2nc(-c3ccccc3Cl)oc2C)c1)C(=O)O (stereo not drawn) [3-{1-[2-(2-CHLORO-PHENYL)-5-METHYL-OXAZOL-4-YLMETHYL]-1H-INDOL-5-YL}-2-ETHOXY-PROPIONIC ACID],Dose at which mortality occurred,"mice; mice, p.o.",≥ 0.6 mg/kg/day
same,Exposure at which dose-dependent severe toxicity was found,"mice; mouse, in vivo, po",≥ 50 × anticipated human exposure
same,Findings in other tissues,"mice; mouse, in vivo, po","degeneration of heart and skeletal muscle, and brown adipose tissue"
same,"Toxicity in tissue (liver, heart, skeletal muscle, brown adipose tissue)",[1],not observed
same,"Toxicity in tissue (liver, heart, skeletal muscle, brown adipose tissue)",[2],not observed
same,Expression of fatty acid binding protein 4 in liver,[3],strong induction
same,Expression of FABP4 in liver,"[4]; rat, in vivo",not induced
ClC(Cl)(Cl)Cl [carbon tetrachloride],Expression of FABP4 in liver,"[4]; rats, after administration",an induction of the expression of FABP4 was also found
"COc1ccc2c(c1)c(CC(=O)O)c(C)n2C(=O)c1ccc(Cl)cc1 [indomethacin, 1-(4-Chlorobenzoyl)-5-methoxy-2-methyl-3-indoleacetic acid]",Expression of FABP4 in liver,"[4]; Wistar, rat, in vivo",an induction of the expression of FABP4 was also found
same,"FABP4 expression relative to time matched vehicle control, Affymetrix result (Fold change)",[4]; 2 mg/kg/day for 7 days,1 Fold change
same,"FABP4 expression relative to time matched vehicle control, Affymetrix result (Fold change)",[4]; 5 mg/kg/day for 7 days,79.59 Fold change
same,"FABP4 expression relative to time matched vehicle control, Affymetrix result (Fold change)","[4]; single dose 2 mg/kg, necropsy 6 hours",1 Fold change
same,"FABP4 expression relative to time matched vehicle control, Affymetrix result (Fold change)","[4]; single dose 2 mg/kg, necropsy 24 hours",1 Fold change
same,"FABP4 expression relative to time matched vehicle control, Affymetrix result (Fold change)","[4]; single dose 10 mg/kg, necropsy 6 hours",1 Fold change
same,"FABP4 expression relative to time matched vehicle control, Affymetrix result (Fold change)","[4]; single dose 10 mg/kg, necropsy 24 hours",4.13 Fold change
same,"FABP4 expression relative to time matched vehicle control, Affymetrix result (Fold change)","[4]; single dose 20 mg/kg, necropsy 6 hours",1 Fold change
same,"FABP4 expression relative to time matched vehicle control, Affymetrix result (Fold change)",[4]; [6],8.41 Fold change
same,Expression of fatty acid binding protein 4 in liver (Affymetrix gene arrays),"[4]; rats, 24 hours after single dose 10 or 20 mg/kg, and 7 consecutive days 5 mg/kg/day",strong induction
same,"FABP4 expression relative to time matched vehicle control, PCR result (Fold change)",[5]; 5 mg/kg/day for 7 days,26.92 Fold change
same,"FABP4 expression relative to time matched vehicle control, PCR result (Fold change)",[5]; [6],13.68 Fold change
same,Clinical biochemistry parameters,livers; especially 10 and 20 mg/kg single dose and 5 mg/kg/day repeated treatment,changes of different clinical biochemistry parameters indicative of liver changes
same,Liver histopathology,"livers; p.o., dose dependent",Slight histopathological alterations (hepatocellular hypertrophy)
same,Hepatocellular glycogen deposition,livers; single administration of 10 or 20 mg/kg or 5 mg/kg/day for 7 consecutive days,Decreased hepatocellular glycogen deposition
lipopolysaccharide,Expression of FABP4 in liver,"[4]; rats, after administration",an induction of the expression of FABP4 was also found
